Test results reported in patent US9943528B2 (MAPREG, priority 2016, dated 2018).
Read-outs that look alike come from different tables or passages of the source.

Assays:
NMDA PCP site = test: CNS receptor binding assay, NMDA PCP site; conditions: MAP4343 10 μM; [3H] TCP; rat cerebral cortex
From the text: (§1) MAP4343 has been screened for in vitro affinity to 80 different CNS neurotransmitters receptors using various validated binding assays.

Noradrenergic α1 = test: CNS receptor binding assay, α1; conditions: MAP4343 10 μM; [3H] prazosin; rat cerebral cortex
From the text: as §1

Wistar Kyoto (WKY) rats = test: Forced swimming test (FST) in WKY rats; assay type: in vivo, rat; conditions: FIG. 6B
Protocol: After a 6-day period of acclimatization, all experimental groups received daily successive subcutaneous (250 μl per rat) and intraperitoneal (1 ml/kg) injections. WI rats received injection of vehicle (sesame oil+saline) while WKY rats were randomly assigned to three experimental groups, as follow: KWY rats receiving only vehicle ([…]; rats received in parallel i.p. injections of saline), fluoxetine (10 mg/kg i.p., rats received in parallel s.c. injections of sesame oil) or ketamine (30 mg/kg, i.p.; rats received in parallel s.c. injections of sesame oil) (see FIG. 3).
(§2) After, a 6-day period of acclimatization, the acute phase of treatment started for 4 days during behavioral tests were performed (FIG. 3). All animals were injected 1 h 30 before the starting of behavioral test.
Rats were submitted to the forced swimming test (FST), according the procedure initially described by (Detke et al., 1995) and slightly modified by (Bianchi et al., 2002). Briefly, rats were individually placed into a Plexiglas cylinder (40 cm height, 20 cm diameter) containing 25 cm of water at 25±1° C., under 50 lux illumination. […] The pre-test and test sessions were recorded using a video camera placed above the cylinder for subsequent behavioral analysis. The immobility time (in sec) was blindly measured by two independent experimenters from recorded videos. […]

[1] = test system: adult male Sprague Dawley rats; conditions: cited from earlier work
[2] = test system: tree shrews exposed to chronic psychosocial stress; conditions: 4-week daily administration; cited from earlier work
[3] = molecular target: T1, human progesterone receptor (PR) (Homo sapiens, UniProt P06401); test: Test of progesterone receptor antagonist activity (MMTV-luciferase transactivation with progesterone 1 nM); assay type: cell-based; conditions: HEK293T cells, progesterone 1 nM plus increasing amounts; FIG. 2
T1 construct: expressed in transfected cells; host or cells: HEK293T
T1 sequence (P06401 1-933): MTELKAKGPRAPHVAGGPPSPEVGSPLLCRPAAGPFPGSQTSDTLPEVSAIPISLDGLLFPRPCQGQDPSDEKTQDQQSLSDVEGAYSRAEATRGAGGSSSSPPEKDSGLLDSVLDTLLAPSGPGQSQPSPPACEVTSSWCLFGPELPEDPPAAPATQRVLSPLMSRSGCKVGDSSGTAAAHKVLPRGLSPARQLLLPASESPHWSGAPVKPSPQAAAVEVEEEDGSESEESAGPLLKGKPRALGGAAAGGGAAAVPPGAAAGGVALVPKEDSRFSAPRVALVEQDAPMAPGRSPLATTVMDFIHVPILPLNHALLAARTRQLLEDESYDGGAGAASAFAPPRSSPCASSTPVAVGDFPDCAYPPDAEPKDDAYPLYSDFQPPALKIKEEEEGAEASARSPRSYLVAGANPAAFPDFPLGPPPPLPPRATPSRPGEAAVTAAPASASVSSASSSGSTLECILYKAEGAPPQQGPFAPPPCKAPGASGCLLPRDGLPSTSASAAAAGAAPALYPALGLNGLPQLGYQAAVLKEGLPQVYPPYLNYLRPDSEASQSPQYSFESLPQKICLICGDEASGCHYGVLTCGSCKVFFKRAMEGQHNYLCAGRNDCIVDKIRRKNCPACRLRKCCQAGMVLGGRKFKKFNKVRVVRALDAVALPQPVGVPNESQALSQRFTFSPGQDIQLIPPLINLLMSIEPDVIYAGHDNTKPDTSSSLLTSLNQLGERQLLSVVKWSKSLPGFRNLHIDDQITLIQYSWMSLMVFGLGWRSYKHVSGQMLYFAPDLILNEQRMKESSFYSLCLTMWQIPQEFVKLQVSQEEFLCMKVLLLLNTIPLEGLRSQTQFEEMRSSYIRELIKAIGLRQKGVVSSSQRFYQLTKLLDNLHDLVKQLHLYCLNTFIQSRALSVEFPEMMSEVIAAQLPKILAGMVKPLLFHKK
Protocol: The main experimental setting used is the following: HEK293T cells were transiently transfected, using calcium phosphate precipitation technology, with expression vectors pSG5hPR (which permits expression of human progesterone receptor (PR)), pFC31-luc (contains the luciferase gene under the control of the MMTV promoter, which is in turn activated by binding of a progestin to progesterone receptor) and pcbetagal (which permits expression of betagalactosidase), and cultured during 24 hours with increasing amounts of various compositions:
Test of progesterone receptor […] activity: transfected cells were cultured with progesterone (1 nM) and increasing amounts of RU486 (a well-known progesterone receptor antagonist) or 3-methoxy-pregnenolone.
With this setting, a compound with progesterone receptor antagonist activity competes with progesterone for the occupation of progesterone receptor and results in a progressive loss of transactivation activity when the amount of this compound is increased compared to progesterone.

[4] = test system: social-isolated adult male Sprague Dawley rats; conditions: cited from earlier work
Noradrenergic α2 = test: CNS receptor binding assay, α2; conditions: MAP4343 10 μM; [3H] RX 821002; rat cerebral cortex
From the text: as §1

Wistar (WI) rats = test: Forced swimming test (FST) in WI rats, dose-ranging; assay type: in vivo, rat; conditions: FIG. 6A
Protocol: as §2
Rats were submitted to the forced swimming test (FST), according the procedure initially described by (Detke et al., 1995) and slightly modified by (Bianchi et al., 2002). Briefly, rats were individually placed into a Plexiglas cylinder (40 cm height, 20 cm diameter) containing 25 cm of water at 25±1° C., under 50 lux illumination. After a pre-test session of 15 min, rats were removed, dried and returned to its housed cage. Twenty-four hours after the pre-test session, rats were still placed in the swim cylinder (under identical conditions) for the 5-min test session. The pre-test and test sessions were recorded using a video camera placed above the cylinder for subsequent behavioral analysis. The immobility time (in sec) was blindly measured by two independent experimenters from recorded videos. Rats were considered as immobile when none activity was observed other than that required to keep the rat's head above the water.

[5] = test system: adult male Sprague Dawley rats; conditions: U.S. Pat. No. 8,334,278, cited from earlier work
MAP2 = test: Binding (affinity) by displacement of PREG-3H
[6] = test system: purified tubulin and MAP2; test: Activity: increase in optical density at 345 nm of purified tubulin and MAP2 with GTP; assay type: biochemical; conditions: 37° C.
Protocol: Activity is measured by the increase in optical density at 345 nm of a mixture of purified tubulin and MAP2, incubated at 37° C. in the presence of GTP.

[7] = test system: 80 different CNS neurotransmitters receptors; test: Screen for in vitro affinity to 80 different CNS neurotransmitters receptors; conditions: 80 CNS neurotransmitters receptors, validated binding assays
From the text: as §1

With CO[C@H]1CC[C@@]2(C)C(=CC[C@H]3[C@@H]4CC[C@H](C(C)=O)[C@@]4(C)CC[C@@H]32)C1 [MAP4343, 3β-methoxy-pregna-5-ene-20-one] the “% Inhibition of control specific binding” value (NMDA PCP site) was −10%, the “% Inhibition of control specific binding” value (Noradrenergic α1) was 4% and the “immobility time in FST, dose-ranging effect” value (Wistar Kyoto (WKY) rats; MAP4343 1, 5, 10 and 15 mg/kg) was “dose-dependent decrease of immobility time”. For the same compound, the “immobility time in FST, change vs WKY receiving vehicle alone” value (Wistar Kyoto (WKY) rats; dose-ranging, MAP4343 15 mg/kg) was −25%, the “immobility in the forced swimming test” value ([1]; naïve adult male Sprague Dawley rats, U.S. Pat. No. 8,334,278) was “decreases immobility” and the “immobility in the forced swimming test” value ([1]; social-isolated adult male Sprague Dawley rats, Bianchi and Baulieu, 2012) was “decreased immobility”. For the same compound, the “hormone hypersecretion, hypothermia and sleep disturbances” value [2] was “prevent hormone hypersecretion, hypothermia and sleep disturbances”, the stress-triggered avoidance behavior [2] was “abolish stress-triggered avoidance behavior” and the “progesterone receptor antagonist activity (loss of transactivation)” value [3] was “weak progesterone receptor antagonist”. For the same compound, the “anxiety in the EPM test” value ([4]; acute phase (2 days of daily injections)) was “not in the acute phase”, the “anxiety in the EPM test” value ([4]; subchronic phase (8 days of daily injections)) was “recovered increased anxiety” and the “% Inhibition of control specific binding” value (Noradrenergic α2) was 7%. For the same compound, the “immobility time in FST, change vs WI receiving vehicle alone” value (Wistar (WI) rats; MAP4343 10 mg/kg) was −27%, the “immobility time in FST, change vs WI receiving vehicle alone” value (Wistar (WI) rats; MAP4343 15 mg/kg) was −31% and the “immobility time in FST, dose-ranging effect” value (Wistar (WI) rats; MAP4343 1, 5, 10 and 15 mg/kg) was “dose-dependent reduction of immobility time”. For the same compound, the “memory retention in NOR” value ([5]; naïve adult male Sprague Dawley rats) was “increases memory retention”, the “memory deficit in the NOR test” value ([5]; social-isolated adult male Sprague Dawley rats) was “induces recovery of memory deficit” and the Affinity (MAP2) was 100% of PREG. For the same compound, the Activity [6] was 100% of PREG and the “in vitro affinity for the tested receptors” value [7] was “no significant affinity for any tested receptor”.
